Laboratory results reported in US7235679B2, “Crystals of a vitamin D derivative and a method for the preparation thereof” (Chugai Seiyaku Kabushiki Kaisha, priority 1996, dated 2007).

Legend:
[1] = Stability test of ED-71: HPLC quantitative assay (survivability); assay type: physicochemical
Experimental: (§1) Amorphous and crystalline ED-71 compounds were tested for stability at 10, 25 and […]. To estimate the stability, HPLC quantitative assay and absorbance and purity measurements were utilized. The purity was expressed as peak area ratio in percentage in HPLC (% P.A.R.). The test was carried out by using the following procedures:
(§2) About 2 mg portions of each of the amorphous and crystalline samples are precisely weighed into transparent 10 ml test tubes each having screw cap, individually.
(§3) The test tubes are purged with argon using a vacuum desiccator and a glove box. This purging procedure is not applied to the test tubes indicated as “1 M (air)” in the tables below.
(§4) The test tubes in groups are fixed in thermostatic baths which are respectively controlled at the above temperatures and allowed to stand in the dark. After one (1 W) or two (2 W) weeks or one month (1 M), the test tubes are removed from the baths and subjected to the following assay and measurements:
5 ml of absolute ethanol is precisely added to the test tube to form a sample solution. 1 ml of the sample solution and 1 ml of an internal standard solution are both precisely added to another test tube and the resulting mixture is diluted with methylene chloride to give a whole volume of 20 ml. This diluted solution is designated solution 1. The internal standard solution is formed by dissolving 2-aminopyrimidine in methanol to a concentration of 0.6 mg/ml.
Next, both of 1 ml of another standard solution for quantitative assay which is formed by dissolving crystalline ED-71 in absolute ethanol to a concentration of 0.4 mg/ml and 1 ml of the internal standard solution are precisely added to another test tube and the resulting mixture is diluted with methylene chloride to give a whole volume of 20 ml. This diluted solution is designated solution 2.
HPLC is carried out using 20 μl of each of solutions 1 and 2. For each solution, an area ratio of the peak of ED-71 to the peak of the internal standard substance is determined from the HPLC data. The ED-71 content in the sample is determined from the ratio of the area ratio for solution 1 to that for solution 2.
Survivability (%) is determined by dividing the ED-71 content thus obtained by ED-71 content in the same sample but prior to the above treatment. • HPLC conditions used: • Column: YMC A-004SIL (4.6×300 mm) • Mobile phase: methylene chloride/methanol mixture (95/5) • Flow rate: 1 ml/min • Detection: at UV 265 nm. (3) Absorbance Measurement

[2] = Stability of ED-71 crystalline compound, overall conclusion; assay type: physicochemical; conditions: up to 2 weeks at 25° C. and 40° C.
Experimental: as §1, §2, §3, §4
The values of the HPLC quantitative assay and the purity measurement are averaged over two runs.

Row | Structure (SMILES) | HPLC Quantitative Assay (% Survivability) ([1]; 10° C., 1 M (air), dark) [%] | HPLC Quantitative Assay (% Survivability) ([1]; 10° C., 1 M, argon, dark) [%] | HPLC Quantitative Assay (% Survivability) ([1]; 10° C., 2 W, argon, dark) [%] | HPLC Quantitative Assay (% Survivability) ([1]; 10° C., time 0) [%] | HPLC Quantitative Assay (% Survivability) ([1]; 25° C., 1 W, argon, dark) [%] | HPLC Quantitative Assay (% Survivability) ([1]; 25° C., 2 W, argon, dark) [%] | HPLC Quantitative Assay (% Survivability) ([1]; 25° C., time 0) [%] | HPLC Quantitative Assay (% Survivability) ([1]; 40° C., 1 W, argon, dark) [%] | HPLC Quantitative Assay (% Survivability) ([1]; 40° C., 2 W, argon, dark) [%] | HPLC Quantitative Assay (% Survivability) ([1]; 40° C., time 0) [%] | stability compared with the amorphous form [2]
1 | C=C1/C(=C\C=C2/CCC[C@@]3(C)C2CC[C@@H]3[C@H](C)CCCC(C)(C)O)C[C@@H](O)[C@@H](OCCCO)[C@@H]1O (stereo partly drawn) [Amor., 1α,25-dihydroxy-2β-(3-hydroxypropoxy)vitamin D3] | 97.4 | 94.8 | 98.5 | 100 | 99.5 | 94.7 | 100 | 99.4 | 88.8 | 100 | –
2 | C=C1/C(=C\C=C2/CCC[C@]3(C)[C@@H]([C@H](C)CCCC(C)(C)O)CC[C@@H]23)C[C@@H](O)[C@@H](OCCCO)[C@@H]1O [Crys., 1α,25-dihydroxy-2β-(3-hydroxypropoxy)vitamin D3] | 95.0 | 97.0 | 96.8 | 100 | 99.4 | 98.8 | 100 | 99.5 | 102.9 | 100 | higher stability
